Results reported in patent US4330558A, “Pharmaceutical composition and method for treating peripheral orthostatic hypotension” (Sumitomo Chemical Company, Limited, priority 1980, dated 1982).
Read-outs that look alike come from different tables or passages of the source.

Assays:
[1] = in a certain case; cited from earlier work
mice = assay: Acute toxicity, LD50 in mice; format: in vivo
Text: (§1) Toxicity of threo-DOPS is extremely low. LD50 value in mice is more than 10 g/kg (p.o.) and about 10 g/kg (i.p.).

[2] = Acute toxicity, LD50 in mice; format: in vivo; details: mouse, in vivo
Text: as §1

[3] = Clinical observation of side effects; format: in vivo, human
orthostatic hypotension = assay: Clinical effect of threo-DOPS on blood pressure, summary of the pharmacological tests; format: in vivo, human
FAP patients = assay: Long term oral administration of DL-threo-DOPS in FAP patients (simple blind test, 4 weeks); format: in vivo, human; details: 1.2 g/day oral
Experimental: (3) Long term oral administration of DL-threo-DOPS The clinical trial was carried out according to a simple blind test procedure. […] The patients refrained from taking any drug for one week before administration of DL-threo-DOPS. After 4 weeks of administration period of DL-threo-DOPS,the patients were given placebos containing lactose. […] In the graphs A to F of FIG. […] The results are expressed as mean±S.E.

patients with FAP [4] = format: in vivo, human; details: 600 mg oral
Experimental: (2) Oral administration test of DL-threo-DOPS
The test was carried out by administering orally 600 mg of DL-threo-DOPS to nine persons (4-normal persons and 5 FAP patients). Plasma norepinephrine levels and blood pressure were determined.
In the graphs A to C of FIG. 2, the abscissa axes indicate time (hrs.) and the ordinate axes indicate plasma norepinephrine level (pg/ml), change in maximum blood pressure (mmHg) and minimum blood pressure (mmHg), respectively. The results are expressed as mean±S.E.

[5] = test system: patients suffering from various kinds of orthostatic hypotension; assay: Effect of intravenous DL-threo-DOPS on blood pressure in patients suffering from various kinds of orthostatic hypotension; format: in vivo, human; details: i.v. drip infusion
Experimental: Under the same condition as in FAP, DL-threo-DOPS was administered intravenously to patients suffering from familial diabetes mellitus, aortitis syndrome, idiopathic orthostatic hypotension, acute pan-dysautonomia and ectopic pineal tumor, respectively. Changes in pulse rate and blood pressure were determined. In the graphs A to D of FIGS. 4, 5, 6, 7 and 8, the abscissa axes indicate time (min.) and the ordinate axes indicate change in pulse rate, maximum blood pressure (mmHg) and minimum blood pressure (mmHg), and drip infusion rate of DL-threo-DOPS (mg/min.), respectively.

patients with FAP [6] = assay: Intravenous drip infusion test of DL-threo-DOPS in normal persons and FAP patients (pulse rate, blood pressure); format: in vivo, human; details: 200 mg i.v. drip infusion over 2 hours
Experimental: (1) Intravenous drip infusion test of DL-threo-DOPS The test was carried out by administering 200 mg of DL-threo-DOPS in 400 ml of isotonic sodium chloride solution over 2 hours to four persons (2 normal persons and 2 FAP patients) by intravenous drip infusion (1.7 mg/min.). Changes in pulse rate and blood pressure were determined. In the graphs A to D of FIG. 1, the abscissa axes indicate time (min.) and the ordinate axes indicate changes in pulse rate, maximum blood pressure (mmHg) and minimum blood pressure (mmHg), and drip infusion rate of DL-threo-DOPS (mg/min.), respectively. In the graphs A to C, the symbol o indicates normal subjects (2 persons) and .cndot., FAP patients (2 persons).

[7] = test system: aromatic L-amino acid decarboxylase; details: in the living body; cited from earlier work
[8] = Comparison of effectiveness of L-isomer and DL-isomer in the pharmacological tests; format: in vivo; details: L-isomer vs DL-isomer
Text: In general, threo-DOPS exists as optical isomers and there are the L- and D-isomers as well as the racemic DL-isomer. The term "threo-DOPS" used herein means DL-threo-DOPS and L-threo-DOPS.

[9] = summary of the pharmacological tests

## NC(C(=O)O)C(O)c1ccc(O)c(O)c1 (centres unmarked) [DOPS]
[1]
  effect on blood pressure: anti-hypertensive action

## N[C@H](C(=O)O)[C@H](O)c1ccc(O)c(O)c1 (relative stereo) [threo-DOPS, threo-3,4-dihydroxyphenylserine]
mice
  toxicity: extremely low
[2]; ip
  LD50: ~10000 mg/kg
[2]; po
  LD50: > 10000 mg/kg
[3]
  side effect observed clinically: no side effect is observed clinically
Orthostatic hypotension; FAP as model of dysautonomia syndrome
  effect on orthostatic hypotension: effective on orthostatic hypotension, inducing substantial and sustained elevation of blood pressure
Orthostatic hypotension; [9]
  effect on blood pressure of normal subjects and of patients suffering from central orthostatic hypotension: does not have a significant effect on blood pressure
  effect on peripheral orthostatic hypotension: selective effect on "peripheral" orthostatic hypotension

## N[C@H](C(=O)O)[C@H](O)c1ccc(O)c(O)c1 (relative stereo) [DL-threo-DOPS, DL-threo-3,4-dihydroxyphenylserine]
FAP patients
  activity of daily living: restored
  dizziness and giddiness caused by orthostatic hypotension: mitigated
  side effect: No side effect was observed
FAP patients; three patients suffering from orthostatic hypotension, 3 and 5 hours after administration
  blood pressure at 11 a.m. and 1 p.m.: a significant rise of blood pressure was observed
Patients with FAP [4]; FAP patients (FIG. 2)
  change in plasma norepinephrine level: almost parallel with that of blood pressure
  time at which plasma norepinephrine level was restored to the normal level after oral administration: 5 h
Patients with FAP [4]; inferred from the results
  absorption after oral administration: absorbed in the intestine
  conversion by aromatic L-amino acid decarboxylase after oral administration: converted to (-) norepinephrine
Patients with FAP [4]; FAP patients (5)
  hypertensive action: gradual and sustained hypertensive action
  time of peak of hypertensive action after oral administration: 5 h
Patients with FAP [4]; normal subjects (4)
  change in blood pressure: no significant change in blood pressure was observed
[5]; acute pan-dysautonomia, person
  pressor response: Pressor response was observed
[5]; aortitis syndrome, person
  pressor response: Pressor response was observed
[5]; conclusion from cases (1) to (5)
  selectivity for type of orthostatic hypotension: selective effect on the "peripheral" type of orthostatic hypotension
[5]; ectopic pineal tumor, person
  pressor response: Pressor response was not observed
[5]; familial diabetes mellitus, patient A (asymptomatic orthostatic hypotension)
  pressor response: showed pressor response
[5]; idiopathic orthostatic hypotension, person
  pressor response: Pressor response was observed
Patients with FAP [6]; FAP patients (2)
  blood pressure response: a sensitive hypertensive response was observed
  time course of the response: gradual and sustained
Patients with FAP [6]; normal persons (2)
  change in blood pressure: did not change either pulse rate or blood pressure
  change in pulse rate: did not change either pulse rate or blood pressure

## N[C@H](C(=O)O)[C@H](O)c1ccc(O)c(O)c1 [L-threo-DOPS, L-threo-3,4-dihydroxyphenylserine]
[7]
  conversion by aromatic L-amino acid decarboxylase: converted to (-) norepinephrine
[8]
  amount for the same effect relative to the DL-isomer: same effect as the DL-isomer in one half the amount
  effectiveness relative to the DL-isomer: about twice as effective as the DL-isomer
